# In US8574633B2 (priority 2004, dated 2013):
# Where “and” joins values, the source holds several entries; their conditions need not be identical. Equal entries are not always repeated.
# Test system: ICR mice
# Description: 2.experimental animals: ICR mice, SPF, male and female, body weight 18-20 g, all bought from Shanghai SIPPR/BK Experimental Animal Co. Laboratory animal license No. SCXK (Hu)2003-0002
# 3. experimental conditions: SPF experimental environment. Grouped the experimental mice 5 per cage and bred. The breeding temperature was 22±2° C., the humidity was 60-70% and Laboratory animal license number was SCXK (Hu)2002-0035. The mice were bred with the solid high pressure forage. Fasted 12 hours before the test but no water-deprivation.
# After administration, the mice were liberated to diet. Observed the mice once immediately, every morning and every afternoon for 7 continuous days. The mice were observed once a day from the 8th day. Record the mortality and toxic reaction of the experimental animals.
structure (smiles),measurement,setting,value
"C/C=C1\[C@H]2C=C(C)C[C@]1(N)c1ccc(=O)[nH]c1C2 [Control medicine, Huperzine A]",content of HupA at the LD50 of the composition,HupA part of the LD50 dose,6.03 mg/kg
same,LD50,"ICR mice, intragastric, simplified probit method, confidence limit 95%",6.03 ± 1.46 mg/kg and 6.03 mg/kg
